{
  "source": "paper PMC4104029",
  "about": "“Mechanism of Action of Compound-13: An α1-Selective Small Molecule Activator of AMPK” (Chemistry & Biology, 2014)",
  "key": {"AMPK α1β1γ1": {"target": "T1, AMPK α1β1γ1 (Homo sapiens, UniProt P54619+Q13131)", "T1 construct": "purchased Sigma and Signalchem; host or cells: Spodoptera frugiperda (Sf9)", "T1 sequence (Q13131 whole entry)": "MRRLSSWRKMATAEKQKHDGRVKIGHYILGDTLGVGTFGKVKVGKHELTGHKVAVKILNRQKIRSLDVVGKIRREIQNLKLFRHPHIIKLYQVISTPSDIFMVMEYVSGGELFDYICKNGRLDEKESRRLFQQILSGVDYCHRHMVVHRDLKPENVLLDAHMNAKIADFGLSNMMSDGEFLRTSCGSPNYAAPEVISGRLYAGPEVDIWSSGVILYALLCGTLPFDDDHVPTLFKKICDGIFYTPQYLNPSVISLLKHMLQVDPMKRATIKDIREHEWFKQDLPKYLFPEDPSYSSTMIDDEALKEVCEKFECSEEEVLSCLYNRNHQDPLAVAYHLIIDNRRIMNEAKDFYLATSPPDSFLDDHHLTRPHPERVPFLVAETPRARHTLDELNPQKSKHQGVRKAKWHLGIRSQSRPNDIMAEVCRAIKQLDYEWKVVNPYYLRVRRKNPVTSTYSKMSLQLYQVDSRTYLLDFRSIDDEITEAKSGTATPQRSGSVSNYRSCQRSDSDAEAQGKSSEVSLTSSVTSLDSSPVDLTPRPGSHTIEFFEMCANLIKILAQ", "T1 sequence (Q9Y478 whole entry partner)": "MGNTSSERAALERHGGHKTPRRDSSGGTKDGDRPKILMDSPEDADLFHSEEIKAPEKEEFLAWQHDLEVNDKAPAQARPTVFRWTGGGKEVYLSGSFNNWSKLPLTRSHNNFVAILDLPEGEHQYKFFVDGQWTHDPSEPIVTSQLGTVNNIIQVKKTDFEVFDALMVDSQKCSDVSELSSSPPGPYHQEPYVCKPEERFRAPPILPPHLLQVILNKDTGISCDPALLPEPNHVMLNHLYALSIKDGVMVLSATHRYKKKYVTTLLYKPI", "T1 sequence (P54619 whole entry)": "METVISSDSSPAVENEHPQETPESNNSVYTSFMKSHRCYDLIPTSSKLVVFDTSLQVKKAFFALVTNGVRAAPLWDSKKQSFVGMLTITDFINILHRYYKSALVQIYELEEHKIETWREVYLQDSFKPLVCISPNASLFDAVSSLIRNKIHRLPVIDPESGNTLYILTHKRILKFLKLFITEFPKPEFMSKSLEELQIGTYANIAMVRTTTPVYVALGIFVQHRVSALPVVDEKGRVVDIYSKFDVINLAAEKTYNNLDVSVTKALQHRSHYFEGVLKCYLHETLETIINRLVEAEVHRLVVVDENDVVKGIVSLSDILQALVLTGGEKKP", "assay": "AMPK phosphotransferase assay, allosteric activation, cell-free", "format": "biochemical", "conditions": "1 μM C2, ADP 0–200 μM", "procedure": "Figure 1 The AMP Analog C2 Is a Potent AMPK Activator in Cell-Free Assays with Selectivity for α1 Complexes (A) The structure of the endogenous activator of AMPK, AMP; the AMP mimetic, C2; and the classical AMP mimetic, ZMP, and other AMPK activators are shown. […] (B) Recombinant AMPK complexes (α1β1γ1, α2β1γ1, α1β1γ2, and α1β2γ1) expressed in Spodoptera frugiperda were assayed for allosteric activation by AMP or C2. Results are expressed as the increase in activity relative to controls without ligand and represent the mean ± SD for three independent experiments. (C) Enzymes allosterically regulated by AMP (PFK1 and FBP1) or using AMP as a substrate (AMPD1, AK, and 5′-NT) were assayed in the presence of C2 (≤ 100 μM). Enzymes allosterically regulated by AMP were screened for both agonism and antagonism, the latter in the presence of AMP at ≈ EC50. All enzymes were unaffected by [C2] ≤ 100 μM. Representative data are shown for the effects of AMP and C2 on PFK1 and FBP1 activity. Results are representative of three independent experiments conducted on one enzyme preparation. TEXT PRINTED IN THE PICTURE: (B) C2: α1β1γ1: EC50: 0.011 ± 0.001 μM; α2β1γ1: EC50: 0.015 ± 0.003 μM; α1β1γ2: EC50: 0.024 ± 0.004 μM; α1β2γ1: EC50: 0.015 ± 0.002 μM | (B) AMP: α1β1γ1: EC50: 3.7 ± 0.6 μM; α2β1γ1: EC50: 3.2 ± 0.2 μM; α1β1γ2: EC50: 2.5 ± 0.3 μM; α1β2γ1: EC50: 3.2 ± 0.4 μM | (C) C2: PFK1: EC50: ND; FBP1: IC50: ND | (C) AMP: PFK1: EC50: 33 ± 3 μM; FBP1: IC50: 5 ± 0.2 μM […]\nWe initially compared the ability of C2 and AMP to activate various recombinant human AMPK complexes, expressed in insect cells, in cell-free assays (Figure 1B). As reported previously using rat liver complexes separated by immunoprecipitation ([Salt et al., 1998]), the allosteric activation of α1 complexes by AMP was less than that of α2 complexes. […] Similar results were obtained with other permutations of β and γ subunits in complex with α2 (data not shown). We also tested the effects of C2 and AMP on recombinant human α1β1γ1 and α2β1γ1 complexes expressed in E. coli and obtained similar results (data not shown).\nAMPK phosphotransferase activity was assayed in reactions (50 μl) containing 50 mM HEPES, pH 7.4, 10 mM MgCl2, 0.1 mM EGTA, 1 mM DTT, 0.01% BRIJ-35, 100 μM [γ-^32P]ATP (∼250 CPM⋅pmol^−1) and 200 μM AMARA (AMARAASAAALARRR). Reactions were started by the addition of AMPK (5 mU), incubated for 20 min at 30°C and quenched by spotting onto P81 and immersion in 75 mM H3PO4. Washed filters were dried and [^32P] incorporation determined by Cherenkov counting. AMPK activity in cell extracts was determined by immunoprecipitation with AMPKα1 or AMPKα2 antibodies from 50 μg material, as previously described ([Hunter et al., 2011]). […]"}, "[1]": {"system": "LKB1−/− mouse embryonic fibroblasts", "assay": "AMPK and ACC phosphorylation in LKB1-null fibroblasts", "format": "cell-based", "conditions": "1 hr; AICAR 2 mM", "procedure": "AICAR (0.5 mM) was included as a positive control. Cell lysates were analyzed using western blotting with the indicated antibodies. (B) AMPKα1 or AMPKα2 complexes were immunoprecipitated from hepatocyte extracts prepared as described in (A) and assayed for kinase activity using 0.2 mM AMARA and 0.1 mM ATP. Results are expressed as the mean Pi incorporated in picomoles per minute-milligram ± SD. (C) Hepatocytes were stimulated with 30 μM C13 for the indicated times prior to harvesting, with AICAR (0.5 mM, 1 hr) as positive control. Lysates were analyzed using western blotting with the indicated antibodies. (D) Mouse hepatocytes were treated with the indicated compounds for 1 hr, and adenine nucleotide ratios were determined using capillary electrophoresis of perchloric acid extracts. […] Lysates were analyzed using western blotting with the indicated antibodies. (F) Wild-type (LKB1^+/+) or LKB1-null (LKB1^−/−) mouse embryonic fibroblasts were incubated with the indicated concentrations of C13 for 1 hr. AICAR (2 mM) was included as a positive control. Lysates were analyzed using western blotting with the indicated antibodies."}, "β1-KO hepatocytes [2]": {"system": "β1-KO hepatocytes", "assay": "Lipogenesis, [3H]acetate incorporation into total lipids", "format": "cell-based, mouse", "conditions": "100 μM, 4 hr", "procedure": "(§1) Figure 7 C13 Activates Both β1 and β2 Complexes in Mouse Hepatocytes (A) Hepatocytes from WT, AMPKβ1^−/−, and AMPKβ2^−/− mice were incubated with the indicated concentrations of C13 for 1 hr. A769662 (100 μM) was included as a positive control. Lysates were analyzed using western blotting with the indicated antibodies. (B) Mouse hepatocytes from the indicated genotypes were treated with the indicated concentrations of C13 and labeled with [^3H]acetate for 4 hr. Lipogenesis was estimated from the incorporation of acetate into total lipids. Results are expressed as the mean acetate incorporated in micromoles per gram-hour ± SD.\nLipid synthesis was determined by labeling adherent cultures of primary hepatocytes with [1-^14C]acetate. After overnight culture, hepatocytes (5 × 10^5) were washed with warm PBS and allowed to rest for 3 hr in fresh M199. Cells were treated with vehicle (0.1% DMSO) or the indicated compounds and labeled with 1 mCi⋅mmol^−1 [1-^14C]acetate for 3 hr. […] Lipogenesis in hepatocytes from AMPKβ1/β2-KO mice was determined in media containing [^3H]acetate (0.2 mCi⋅mmol^−1). After 4 hr labeling, total lipids were extracted using the method of [Bligh and Dyer (1959)], and incorporated [^3H] was determined by scintillation counting. The results are expressed as micromoles acetate incorporated per gram-hour."}, "β1-KO hepatocytes [3]": {"system": "β1-KO hepatocytes", "assay": "AMPK signaling, western blotting", "format": "cell-based, mouse", "conditions": "1 hr; A769662 100 μM", "procedure": "as §1"}, "WT and β2-KO hepatocytes": {"system": "WT and β2-KO hepatocytes", "assay": "AMPK signaling, western blotting", "format": "cell-based, mouse", "conditions": "1 hr; A769662 100 μM", "procedure": "as §1"}, "mouse hepatocytes": {"system": "mouse hepatocytes", "assay": "Adenine nucleotide ratios by capillary electrophoresis", "format": "cell-based", "conditions": "1 hr; C13 up to 100 μM", "procedure": "(§2) Figure 4 The C2 Prodrug, C13, Potently Activates AMPK in Mouse Primary Hepatocytes (A) Isolated mouse hepatocytes were incubated with vehicle or the indicated concentrations of C13 for 1 hr. AICAR (0.5 mM) was included as a positive control. Cell lysates were analyzed using western blotting with the indicated antibodies. (B) AMPKα1 or AMPKα2 complexes were immunoprecipitated from hepatocyte extracts prepared as described in (A) and assayed for kinase activity using 0.2 mM AMARA and 0.1 mM ATP. Results are expressed as the mean Pi incorporated in picomoles per minute-milligram ± SD. (C) Hepatocytes were stimulated with 30 μM C13 for the indicated times prior to harvesting, with AICAR (0.5 mM, 1 hr) as positive control. Lysates were analyzed using western blotting with the indicated antibodies. (D) Mouse hepatocytes were treated with the indicated compounds for 1 hr, and adenine nucleotide ratios were determined using capillary electrophoresis of perchloric acid extracts. (E) Mouse hepatocytes were preincubated with 30 μM STO-609 for 30 min prior to stimulation with 30 μM C13 for 1 hr or with 1 μM ionomycin for 30 min. Lysates were analyzed using western blotting with the indicated antibodies. (F) Wild-type (LKB1^+/+) or LKB1-null (LKB1^−/−) mouse embryonic fibroblasts were incubated with the indicated concentrations of C13 for 1 hr. AICAR (2 mM) was included as a positive control. Lysates were analyzed using western blotting with the indicated antibodies. Results are representative of three independent experiments. […]\nIsolation of primary hepatocytes. Hepatocytes were isolated from fasted mice by collagenase digestion (Berry and Friend, 1969). Cells were seeded in M199 containing 100 U/ml penicillin G, 100 µg/ml streptomycin, 0.1 % (w/v) BSA, 10 % (v/v) FBS, 10 nM insulin, 200 nM triiodothyronine and 100 nM dexamethasone. […]\nNucleotide measurements. […] Nucleotides were separated and quantified by capillary electrophoresis using a Beckman P/ACE instrument as previously described (Hawley, et al., 2010)."}, "[4]": {"system": "AMPK signaling in mouse primary hepatocytes", "assay": "AMPK signaling in primary hepatocytes, western blotting", "format": "cell-based", "conditions": "30 μM STO-609 for 30 min, 1 μM ionomycin", "procedure": "as §2\nIsolation of primary hepatocytes. Hepatocytes were isolated from fasted mice by collagenase digestion (Berry and Friend, 1969). Cells were seeded in M199 containing 100 U/ml penicillin G, 100 µg/ml streptomycin, 0.1 % (w/v) BSA, 10 % (v/v) FBS, 10 nM insulin, 200 nM triiodothyronine and 100 nM dexamethasone. Post attachment (3-4 h), cells were cultured overnight in M199 supplemented with antibiotics and 100 nM dexamethasone and used for experiments the following morning.\nWestern blotting. Cells were stimulated as indicated, rinsed with ice-cold PBS and lysed with 50 mM tris pH 7.5, 1 mM EDTA, 1 mM EGTA, 0.27 M sucrose, 1 % (w/v) Triton X-100, 20 mM glycerol-2-phosphate, 50 mM NaF, 5 mM Na4P2O7, 1 mM Na3VO4, 1 mM DTT, 0.5 mM PMSF, 1 mM benzamidine and 1 µM microcystin-LR. Lysates were clarified at 3000 g for 5 min at 4 °C and normalised using Bradford reagent and BSA as standard. Lysates (20 µg) were denatured in Laemlli buffer, separated on 7.5 % tris-glycine gels and transferred to PVDF in Towbin buffer. Membranes were blocked in 5 % (w/v) milk for 1 h at RT and incubated overnight in the indicated primary antibodies at 4 °C. Membranes were developed using HRP-conjugated antibodies and ECL reagent.\nNucleotide measurements. Cultured hepatocytes were incubated with the indicated compounds and washed with ice-cold 0.9 % (w/v) saline before extraction in 5 % perchloric acid. Precipitated material was removed by centrifugation (13,000 RPM, 3 min) and supernatant neutralised with 1:1 trioctylamine:Freon-113 (Khym, 1975). Nucleotides were separated and quantified by capillary electrophoresis using a Beckman P/ACE instrument as previously described (Hawley, et al., 2010)."}},
  "data": [
    {"smiles": "Nc1ncnc2c1ncn2[C@@H]1O[C@H](COP(=O)(O)OP(=O)(O)O)[C@@H](O)[C@H]1O", "note": "[ADP, reference compound]", "values": [
      {"measurement": "effect on activation by C2", "setting": "AMPK α1β1γ1", "value": "antagonized"}
    ]},
    {"smiles": "NC(=O)c1ncn([C@@H]2O[C@H](CO)[C@@H](O)[C@H]2O)c1N", "note": "[AICAR, 5-aminoimidazole-4-carboxamide riboside, reference compound]", "values": [
      {"measurement": "compound-induced phosphorylation of AMPK and ACC", "setting": "[1]", "value": "abolished"}
    ]},
    {"smiles": "N#Cc1c(O)c2c(-c3ccc(-c4ccccc4O)cc3)csc2[nH]c1=O", "note": "[Compound A769662, reference compound]", "values": [
      {"measurement": "suppression of lipogenesis", "setting": "β1-KO hepatocytes [2]", "value": "failed to suppress lipogenesis"},
      {"measurement": "stimulation of AMPK (Thr172 phosphorylation)", "setting": "β1-KO hepatocytes [3]", "value": "failed to stimulate"},
      {"measurement": "phosphorylation of Thr172 and ACC, as well as Raptor", "setting": "WT and β2-KO hepatocytes", "value": "robustly stimulated"}
    ]},
    {"smiles": "OO", "note": "[Compound H2O2]", "values": [
      {"measurement": "ADP:ATP and AMP:ATP ratios", "setting": "mouse hepatocytes", "value": "increased"}
    ]},
    {"smiles": "O=[N+]([O-])c1ccc(O)c([N+](=O)[O-])c1", "note": "[DNP, 2,4-dinitrophenol]", "values": [
      {"measurement": "ADP:ATP and AMP:ATP ratios", "setting": "mouse hepatocytes", "value": "increased"}
    ]},
    {"smiles": "O=C(O)c1ccc2c3c1cccc3c(=O)n1c3ccccc3nc21", "note": "[STO-609, reference compound]", "values": [
      {"measurement": "phosphorylation of AMPK and ACC by ionomycin after prior incubation", "setting": "[4]", "value": "almost completely abolished"}
    ]}
  ]
}
